Assay [1] is described as follows: Inhibition of beta-1,4-GalT (unknown origin). Also noted: species or system Homo sapiens.
Assay [2] can be described thus: Inhibition of bovine beta-1,4-GalT using alpha-Fucp-(1-2)-beta-Galp-O-(CH2)7-CH3 as acceptor and UDP-Gal as substrate by radiochemical assay. Details: species or system Bos taurus.
Assay [3] has as its target T1, Beta-galactoside alpha-2,6-sialyltransferase 1 (Homo sapiens, UniProt P15907).
T1 sequence (P15907 whole entry): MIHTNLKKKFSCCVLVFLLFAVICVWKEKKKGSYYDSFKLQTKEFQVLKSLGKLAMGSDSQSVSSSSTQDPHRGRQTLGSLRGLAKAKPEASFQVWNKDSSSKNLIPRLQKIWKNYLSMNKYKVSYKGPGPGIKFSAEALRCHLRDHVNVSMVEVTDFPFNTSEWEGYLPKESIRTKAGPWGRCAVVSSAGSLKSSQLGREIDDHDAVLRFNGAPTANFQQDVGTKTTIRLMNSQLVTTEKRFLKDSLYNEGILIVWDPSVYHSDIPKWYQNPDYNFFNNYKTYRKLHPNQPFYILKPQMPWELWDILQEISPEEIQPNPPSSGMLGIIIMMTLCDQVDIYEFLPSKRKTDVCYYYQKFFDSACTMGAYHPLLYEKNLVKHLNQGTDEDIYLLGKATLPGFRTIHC
Kind of assay: Inhibition of ST6Gal 1 (unknown origin).

In assay [4] the target is T2, CMP-N-acetylneuraminate-beta-galactosamide-alpha-2,3-sialyltransferase 1 (Homo sapiens, UniProt Q11201).
T2 sequence (Q11201 whole entry): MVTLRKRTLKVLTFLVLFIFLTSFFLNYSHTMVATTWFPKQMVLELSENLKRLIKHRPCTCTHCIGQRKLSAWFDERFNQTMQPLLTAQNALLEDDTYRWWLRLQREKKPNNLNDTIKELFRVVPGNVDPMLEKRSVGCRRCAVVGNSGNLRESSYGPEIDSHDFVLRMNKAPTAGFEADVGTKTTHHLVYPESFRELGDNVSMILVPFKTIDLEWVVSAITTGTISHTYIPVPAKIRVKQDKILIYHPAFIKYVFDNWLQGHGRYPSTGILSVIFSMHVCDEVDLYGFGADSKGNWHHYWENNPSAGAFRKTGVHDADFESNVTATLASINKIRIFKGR
The assay is described as follows: Inhibition of ST3Gal 1 (unknown origin).

Assay [5] can be described thus: Inhibition of Candida albicans chitin synthase.
Assay [6] is described as follows: Inhibition of methicillin-resistant Staphylococcus aureus MurG.
Assay [7] deals with Staphylococcus aureus. The assay is described as follows: Antimicrobial activity against methicillin-resistant Staphylococcus aureus. The assay is classed as functional.
A short description of assay [8]: Inhibition of sialyltransferase (unknown origin). Also noted: species or system Homo sapiens.
Assay [9] has as its target Alpha-(1,3)-fucosyltransferase 4 (Homo sapiens, UniProt P22083). The assay is described as follows: Inhibition of FucT-4 (unknown origin).
Assay [10] has as its target T3, CMP-N-acetylneuraminate-beta-1,4-galactoside alpha-2,3-sialyltransferase (Homo sapiens, UniProt Q11203).
T3 sequence (Q11203 whole entry): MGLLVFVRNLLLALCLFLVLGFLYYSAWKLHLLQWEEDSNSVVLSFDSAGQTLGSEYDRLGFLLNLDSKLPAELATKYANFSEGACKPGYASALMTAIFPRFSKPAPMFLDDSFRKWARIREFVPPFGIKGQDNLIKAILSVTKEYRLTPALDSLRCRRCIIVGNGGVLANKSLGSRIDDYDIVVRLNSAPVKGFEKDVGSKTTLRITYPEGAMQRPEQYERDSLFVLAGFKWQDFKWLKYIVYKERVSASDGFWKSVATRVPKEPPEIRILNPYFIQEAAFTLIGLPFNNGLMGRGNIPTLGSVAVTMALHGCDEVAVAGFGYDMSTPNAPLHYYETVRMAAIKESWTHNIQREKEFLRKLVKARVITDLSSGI
The assay is described as follows: Inhibition of ST3N (unknown origin).

For assay [11], the target named is T4, 4-galactosyl-N-acetylglucosaminide 3-alpha-L-fucosyltransferase FUT5 (Homo sapiens, UniProt Q11128).
T4 sequence (Q11128 whole entry): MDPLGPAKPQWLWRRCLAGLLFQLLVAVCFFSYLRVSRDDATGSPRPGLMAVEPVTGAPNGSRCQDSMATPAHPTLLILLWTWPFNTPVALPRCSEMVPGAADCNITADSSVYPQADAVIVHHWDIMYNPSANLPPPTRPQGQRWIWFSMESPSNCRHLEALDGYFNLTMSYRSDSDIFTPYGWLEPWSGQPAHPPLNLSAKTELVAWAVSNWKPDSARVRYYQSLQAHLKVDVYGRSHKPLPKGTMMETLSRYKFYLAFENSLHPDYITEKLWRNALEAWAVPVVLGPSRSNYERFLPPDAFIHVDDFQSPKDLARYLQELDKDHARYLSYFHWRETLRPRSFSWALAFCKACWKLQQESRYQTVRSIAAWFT
The assay is described as follows: Non-competitive inhibition of FucT-5 (unknown origin) using LacNAc as acceptor substrate.

Assay [12] has as its target T4, 4-galactosyl-N-acetylglucosaminide 3-alpha-L-fucosyltransferase FUT5. The assay is described as follows: Uncompetitive inhibition of FucT-5 (unknown origin) using GDP-fucose as donor substrate.
For assay [13] the target is unchanged. The assay is described as follows: Inhibition of FucT-5 (unknown origin).
Assay [14] has as its target T1, Beta-galactoside alpha-2,6-sialyltransferase 1. Kind of assay: Inhibition of ST6N (unknown origin).
Assay [15] has as its target T5, 4-galactosyl-N-acetylglucosaminide 3-alpha-L-fucosyltransferase FUT6 (Homo sapiens, UniProt P51993).
T5 sequence (P51993 whole entry): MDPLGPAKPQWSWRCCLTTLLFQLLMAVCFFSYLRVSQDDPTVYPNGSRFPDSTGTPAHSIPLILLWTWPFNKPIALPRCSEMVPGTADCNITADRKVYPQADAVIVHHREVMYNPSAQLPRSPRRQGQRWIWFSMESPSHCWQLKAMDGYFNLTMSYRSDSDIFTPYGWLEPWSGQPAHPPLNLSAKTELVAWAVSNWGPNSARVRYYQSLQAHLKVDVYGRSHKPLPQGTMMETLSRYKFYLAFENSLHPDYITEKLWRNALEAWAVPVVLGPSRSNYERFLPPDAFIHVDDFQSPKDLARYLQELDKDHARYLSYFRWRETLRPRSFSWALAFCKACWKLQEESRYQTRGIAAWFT
Kind of assay: Inhibition of FucT-6 (unknown origin).

A short description of assay [16]: Inhibition of GTA (unknown origin). Also noted: species or system Homo sapiens.
Assay [17] is described as follows: Inhibition of alpha-(1,3)-GalT (unknown origin). Also noted: species or system Homo sapiens.
The target in assay [18] is Histo-blood group ABO system transferase (Homo sapiens, UniProt P16442). The assay is described as follows: Inhibition of GTB (unknown origin).
A short description of assay [19]: Inhibition of AAGlyB (unknown origin). Details: species or system Homo sapiens.
Assay [20] addresses T1, Beta-galactoside alpha-2,6-sialyltransferase 1. Kind of assay: Inhibition of human ST6Gal1.
For assay [21], the target named is CMP-N-acetylneuraminate-beta-1,4-galactoside alpha-2,3-sialyltransferase (Rattus norvegicus, UniProt Q02734). The assay is described as follows: Inhibition of rat ST3Gal3.
Assay [22] addresses Beta-galactoside alpha-2,6-sialyltransferase 1 (Rattus norvegicus, UniProt P13721). Kind of assay: Inhibition of rat ST6Gal1.

pIC50, pKi: −log10 of the molar value. In brackets after ≈: the same amount, converted by molar mass.

CMP-N-acetylneuraminate-beta-1,4-galactoside alpha-2,3-sialyltransferase (Rattus norvegicus, UniProt Q02734), sequence (Q02734 whole entry): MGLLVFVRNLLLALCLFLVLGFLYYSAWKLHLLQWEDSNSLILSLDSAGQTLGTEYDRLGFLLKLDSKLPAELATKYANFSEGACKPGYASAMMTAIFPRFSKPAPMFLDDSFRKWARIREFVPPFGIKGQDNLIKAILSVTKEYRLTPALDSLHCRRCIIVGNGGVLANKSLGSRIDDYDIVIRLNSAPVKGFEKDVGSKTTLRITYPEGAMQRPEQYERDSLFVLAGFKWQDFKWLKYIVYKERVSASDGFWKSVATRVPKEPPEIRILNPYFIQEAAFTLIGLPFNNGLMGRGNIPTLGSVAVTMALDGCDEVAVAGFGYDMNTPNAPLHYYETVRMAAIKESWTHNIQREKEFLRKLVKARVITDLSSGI
Histo-blood group ABO system transferase, sequence (P16442 whole entry): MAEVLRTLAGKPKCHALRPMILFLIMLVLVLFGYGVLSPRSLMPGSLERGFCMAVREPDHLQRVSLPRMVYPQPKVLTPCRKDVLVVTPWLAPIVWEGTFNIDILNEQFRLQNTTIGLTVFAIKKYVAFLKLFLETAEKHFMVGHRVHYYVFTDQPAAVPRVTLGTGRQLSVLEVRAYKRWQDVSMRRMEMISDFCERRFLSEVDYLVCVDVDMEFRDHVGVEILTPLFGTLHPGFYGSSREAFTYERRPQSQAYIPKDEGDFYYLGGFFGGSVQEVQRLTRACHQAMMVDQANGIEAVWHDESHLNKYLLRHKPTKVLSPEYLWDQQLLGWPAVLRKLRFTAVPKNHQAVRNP
Beta-galactoside alpha-2,6-sialyltransferase 1 (Rattus norvegicus, UniProt P13721), sequence (P13721 whole entry): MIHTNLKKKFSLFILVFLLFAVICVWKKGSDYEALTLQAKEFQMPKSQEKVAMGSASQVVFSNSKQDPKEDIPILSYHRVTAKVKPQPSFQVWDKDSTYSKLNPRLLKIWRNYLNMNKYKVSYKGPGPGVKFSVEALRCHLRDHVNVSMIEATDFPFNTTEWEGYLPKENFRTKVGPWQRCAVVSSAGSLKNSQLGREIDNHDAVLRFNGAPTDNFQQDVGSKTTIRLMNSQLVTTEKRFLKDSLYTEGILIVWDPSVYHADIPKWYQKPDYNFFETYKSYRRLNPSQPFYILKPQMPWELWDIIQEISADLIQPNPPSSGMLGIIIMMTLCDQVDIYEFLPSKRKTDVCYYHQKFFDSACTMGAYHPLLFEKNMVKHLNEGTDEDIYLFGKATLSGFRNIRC
Alpha-(1,3)-fucosyltransferase 4, sequence (P22083 whole entry): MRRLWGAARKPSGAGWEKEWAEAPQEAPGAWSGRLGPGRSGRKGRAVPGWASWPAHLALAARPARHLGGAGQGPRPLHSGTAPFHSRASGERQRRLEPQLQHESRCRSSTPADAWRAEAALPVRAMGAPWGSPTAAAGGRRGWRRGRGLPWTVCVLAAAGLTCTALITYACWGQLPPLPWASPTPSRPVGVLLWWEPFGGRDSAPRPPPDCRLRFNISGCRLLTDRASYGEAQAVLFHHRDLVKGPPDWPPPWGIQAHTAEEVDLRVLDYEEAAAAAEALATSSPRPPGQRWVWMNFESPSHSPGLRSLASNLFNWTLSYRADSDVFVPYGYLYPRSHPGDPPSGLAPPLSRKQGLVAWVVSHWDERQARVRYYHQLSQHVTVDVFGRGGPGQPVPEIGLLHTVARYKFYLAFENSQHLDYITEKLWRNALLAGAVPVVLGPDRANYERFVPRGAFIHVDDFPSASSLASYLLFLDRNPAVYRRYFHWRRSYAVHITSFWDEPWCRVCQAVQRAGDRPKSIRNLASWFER

As usually defined, the pIC50 is the negative decadic logarithm of the IC50, by convention in mol/L. A low value points to a large IC50. `O=C(NC[C@H]1O[C@@H](n2ccc(=O)[nH]c2=O)[C@H](O)[C@@H]1O)c1cccc(CO[C@@H]2O[C@H](CO)[C@H](O)[C@H](O)[C@H]2O)n1` had a pIC50 in assay [1] of 3.82.

A word on the pKi: it is the Ki on a negative log10 scale, so that one unit is a factor of ten. A low value points to a large Ki. In the case of `O=Cc1ccc(-c2cn([C@@H]3O[C@H](COP(=O)(O)OP(=O)(O)O[C@H]4O[C@H](CO)[C@H](O)[C@H](O)[C@H]4O)[C@@H](O)[C@H]3O)c(=O)[nH]c2=O)s1`, the negative-log Ki (pKi) in assay [2] is 4.41.

In the case of `C[C@H](CCC(=O)O)[C@H]1CC[C@H]2[C@@H]3CC[C@@H]4C[C@H](OC(=O)[C@H](CCC(=O)O)Nc5ccc([N+](=O)[O-])c6nonc56)CC[C@]4(C)[C@H]3CC[C@]12C`, the results for the negative logarithm of the IC50 (pIC50) in assay [3] and in [4] were 5.82 and 6.06, respectively.

The compound `C[C@@H]([C@H](N)C(=O)N[C@H](C(=O)O)[C@H]1O[C@@H](n2ccc(=O)[nH]c2=O)[C@H](O)[C@@H]1O)[C@H](O)c1ccc(O)cn1` [NIKKOMYCIN] gave a pKi in assay [5] of 6.80.

The term IC50 denotes the point on the concentration scale where inhibition reaches its midpoint. One may read the MIC as the lowest concentration that inhibits growth of the organism. High values mean weaker potency, low ones greater potency. For the compound `C[C@]12Cc3cnn(-c4ccncc4)c3C=C1CC[C@@H]1[C@@H]2CC[C@@]2(C)[C@H]1CC[C@]2(O)C(=O)CO`, in assay [6], the IC50 is 115 µg/mL (≈ 257 µM). In assay [7], this compound had an MIC of 2 µg/mL (≈ 4.47 µM).

For `O=C(O)c1cc(O)c(O)c(O)c1` [GALLIC ACID], the negative logarithm of the IC50 (pIC50) in [8] was 4.72; in [9], 4.85.

As for `C[C@@H]1CC[C@H]2C(C)(C)[C@H](O)CC[C@]2(C)[C@@]12Cc1c(O)cc(C=O)c(C=O)c1O2`, the pIC50 in assay [10] is 5.00; in assay [13], 4.95; in [14] it was 6.21; in [4] it was 5.17; in [15] it was 4.68. Besides, the pKi in [11] was 5.01; in assay [12], 4.97.

For `c1ccc(-c2nsc(N3CCNCC3)n2)cc1`, the negative-log Ki (pKi) in assay [16] is 2.29; in assay [17] it was 2.20; in assay [18], 3.10; in assay [19], < 1.82.

`O=c1cc(-c2ccc(O)c(O)c2)oc2ccccc12`: the negative logarithm of the IC50 (pIC50) is 5.15 in [20], 5.85 in assay [21] and 5.29 in assay [22].

Source of the values: ChEMBL document CHEMBL3596159, “Beyond substrate analogues: new inhibitor chemotypes for glycosyltransferases” (Medchemcomm, 2014).
